Tests used:
[1] = tested on: NCI-H522; test: Growth inhibition of human NCI-H522 cells assessed as cell growth at 10 uM incubated for 48 hrs by sulforhodamine B assay relative to control; type: functional; conditions: NCI-H522, 48 h, read-out: Activity
[2] = tested on: HCT-116; test: Growth inhibition of human HCT116 cells incubated for 48 hrs by sulforhodamine B assay; type: functional, cell-based; conditions: HCT-116, 48 h
[3] = tested on: OVCAR-4; test: Growth inhibition of human OVCAR4 cells incubated for 48 hrs by sulforhodamine B assay; type: functional, cell-based; conditions: OVCAR-4, 48 h
[4] = tested on: SN12C; test: Growth inhibition of human SN12C cells incubated for 48 hrs by sulforhodamine B assay; type: functional, cell-based
[5] = tested on: HOP-62; test: Growth inhibition of human HOP62 cells assessed as cell growth at 0.01 uM incubated for 48 hrs by sulforhodamine B assay relative to control; type: functional; conditions: HOP-62, 48 h, read-out: Activity
[6] = tested on: NCI-H522; test: Growth inhibition of human NCI-H522 cells assessed as cell growth at 0.01 uM incubated for 48 hrs by sulforhodamine B assay relative to control; type: functional; conditions: NCI-H522, 48 h, read-out: Activity
[7] = tested on: M14; test: Growth inhibition of human M14 cells assessed as cell growth at 0.01 uM incubated for 48 hrs by sulforhodamine B assay relative to control; type: functional; conditions: M14, 48 h, read-out: Activity
[8] = tested on: SK-MEL-2; test: Growth inhibition of human SK-MEL-2 cells assessed as cell growth at 0.01 uM incubated for 48 hrs by sulforhodamine B assay relative to control; type: functional; conditions: SK-MEL-2, 48 h, read-out: Activity
[9] = tested on: MCF7; test: Growth inhibition of human MCF7 cells assessed as cell growth at 0.01 uM incubated for 48 hrs by sulforhodamine B assay relative to control; type: functional; conditions: MCF7, 48 h, read-out: Activity
[10] = tested on: K562; test: Growth inhibition of human K562 cells assessed as cell growth at 0.1 uM incubated for 48 hrs by sulforhodamine B assay relative to control; type: functional; conditions: K562, 48 h, read-out: Activity
[11] = tested on: NCI-H226; test: Growth inhibition of human NCI-H226 cells assessed as cell growth at 0.1 uM incubated for 48 hrs by sulforhodamine B assay relative to control; type: functional; conditions: NCI-H226, 48 h, read-out: Activity
[12] = tested on: SNB-19; test: Growth inhibition of human SNB19 cells assessed as cell growth at 0.1 uM incubated for 48 hrs by sulforhodamine B assay relative to control; type: functional; conditions: SNB-19, 48 h, read-out: Activity
[13] = tested on: OVCAR-5; test: Growth inhibition of human OVCAR5 cells assessed as cell growth at 0.1 uM incubated for 48 hrs by sulforhodamine B assay relative to control; type: functional; conditions: OVCAR-5, 48 h, read-out: Activity
[14] = tested on: OVCAR-8; test: Growth inhibition of human OVCAR8 cells assessed as cell growth at 0.1 uM incubated for 48 hrs by sulforhodamine B assay relative to control; type: functional; conditions: OVCAR-8, 48 h, read-out: Activity
[15] = tested on: NCI-H460; test: Growth inhibition of human NCI-H460 cells assessed as cell growth at 1 uM incubated for 48 hrs by sulforhodamine B assay relative to control; type: functional; conditions: NCI-H460, 48 h, read-out: Activity
[16] = tested on: COLO 205; test: Growth inhibition of human COLO205 cells assessed as cell growth at 1 uM incubated for 48 hrs by sulforhodamine B assay relative to control; type: functional; conditions: COLO 205, 48 h, read-out: Activity
[17] = tested on: HT-29; test: Growth inhibition of human HT-29 cells assessed as cell growth at 1 uM incubated for 48 hrs by sulforhodamine B assay relative to control; type: functional; conditions: HT-29, 48 h, read-out: Activity
[18] = tested on: SK-MEL-5; test: Growth inhibition of human SK-MEL-5 cells assessed as cell growth at 1 uM incubated for 48 hrs by sulforhodamine B assay relative to control; type: functional; conditions: SK-MEL-5, 48 h, read-out: Activity
[19] = tested on: OVCAR-3; test: Growth inhibition of human OVCAR3 cells assessed as cell growth at 1 uM incubated for 48 hrs by sulforhodamine B assay relative to control; type: functional; conditions: OVCAR-3, 48 h, read-out: Activity
[20] = tested on: OVCAR-4; test: Growth inhibition of human OVCAR4 cells assessed as cell growth at 1 uM incubated for 48 hrs by sulforhodamine B assay relative to control; type: functional; conditions: OVCAR-4, 48 h, read-out: Activity
[21] = tested on: OVCAR-8; test: Growth inhibition of human OVCAR8 cells assessed as cell growth at 1 uM incubated for 48 hrs by sulforhodamine B assay relative to control; type: functional; conditions: OVCAR-8, 48 h, read-out: Activity
[22] = tested on: SK-OV-3; test: Growth inhibition of human SKOV3 cells assessed as cell growth at 1 uM incubated for 48 hrs by sulforhodamine B assay relative to control; type: functional; conditions: SK-OV-3, 48 h, read-out: Activity
[23] = tested on: T47D; test: Growth inhibition of human T47D cells assessed as cell growth at 1 uM incubated for 48 hrs by sulforhodamine B assay relative to control; type: functional; conditions: read-out: Activity
[24] = tested on: HL-60(TB); test: Growth inhibition of human HL-60(TB) cells assessed as cell growth at 100 uM incubated for 48 hrs by sulforhodamine B assay relative to control; type: functional; conditions: HL-60, 48 h, read-out: Activity
[25] = tested on: SR; test: Growth inhibition of human SR cells assessed as cell growth at 100 uM incubated for 48 hrs by sulforhodamine B assay relative to control; type: functional; conditions: read-out: Activity
[26] = tested on: NCI-H23; test: Growth inhibition of human NCI-H23 cells assessed as cell growth at 100 uM incubated for 48 hrs by sulforhodamine B assay relative to control; type: functional; conditions: NCI-H23, 48 h, read-out: Activity
[27] = tested on: COLO 205; test: Growth inhibition of human COLO205 cells assessed as cell growth at 100 uM incubated for 48 hrs by sulforhodamine B assay relative to control; type: functional; conditions: COLO 205, 48 h, read-out: Activity
[28] = tested on: KM12; test: Growth inhibition of human KM12 cells assessed as cell growth at 100 uM incubated for 48 hrs by sulforhodamine B assay relative to control; type: functional; conditions: KM12, 48 h, read-out: Activity
[29] = tested on: SF-295; test: Growth inhibition of human SF295 cells assessed as cell growth at 100 uM incubated for 48 hrs by sulforhodamine B assay relative to control; type: functional; conditions: SF-295, 48 h, read-out: Activity
[30] = tested on: SNB-75; test: Growth inhibition of human SNB75 cells assessed as cell growth at 100 uM incubated for 48 hrs by sulforhodamine B assay relative to control; type: functional; conditions: SNB-75, 48 h, read-out: Activity
[31] = tested on: OVCAR-8; test: Growth inhibition of human OVCAR8 cells assessed as cell growth at 100 uM incubated for 48 hrs by sulforhodamine B assay relative to control; type: functional; conditions: OVCAR-8, 48 h, read-out: Activity
[32] = tested on: T47D; test: Growth inhibition of human T47D cells assessed as cell growth at 100 uM incubated for 48 hrs by sulforhodamine B assay relative to control; type: functional; conditions: read-out: Activity
[33] = read-out: LC50 (the source's name)
[34] = read-out: pLC50 (the source's name) (converted)

`O=C(Nc1cccc(-n2cc(-c3ccncc3)c(-c3cc(O)cc(Cl)c3)n2)c1)c1ccc(N2CCOCC2)c(C(F)(F)F)c1` gave a growth at 10 µM [1] of 18.8%, an IC50 [2] of 1960 nM and a GI50 ([2]; read-out: GI50) of 1960 nM. For the same compound, the CC50 [2, 33] was over 100000 nM, the TGI ([2]; read-out: TGI) was over 100000 nM and the GI50 ([2]; read-out: pGI50 (converted)) was 1950 nM. The CC50 [2, 34] was over 100000 nM, the TGI ([2]; read-out: pTGI (converted)) was over 100000 nM and the GI50 ([3]; read-out: GI50) was over 100000 nM. For the same compound, the CC50 [3, 33] was over 100000 nM, the TGI ([3]; read-out: TGI) was over 100000 nM and the GI50 ([3]; read-out: pGI50 (converted)) was over 100000 nM. It also gave a CC50 [3, 34] of over 100000 nM, a TGI ([3]; read-out: pTGI (converted)) of over 100000 nM and a GI50 ([4]; read-out: GI50) of 6370 nM. It also gave an LC50 ([4]; read-out: LC50) of over 100000 nM, a TGI ([4]; read-out: TGI) of over 100000 nM and a GI50 ([4]; read-out: pGI50 (converted)) of 6310 nM. For the same compound, the LC50 ([4]; read-out: pLC50 (converted)) was over 100000 nM, the TGI ([4]; read-out: pTGI (converted)) was over 100000 nM and the growth at 0.01 µM [5] was 100%. For the same compound, the growth at 0.01 µM [6] was 50%, the growth at 0.01 µM [7] was 95% and the growth at 0.01 µM [8] was 54%. The growth at 0.01 µM [9] was 91%, the growth at 0.1 µM [10] was 100% and the growth at 0.1 µM [11] was 93%. The growth at 0.1 µM [12] was 105%, the growth at 0.1 µM [13] was 90% and the growth at 0.1 µM [14] was 101%. For the same compound, the growth at 1 µM [15] was 44%, the growth at 1 µM [16] was 100% and the growth at 1 µM [17] was 94%. It also gave a growth at 1 µM [18] of 52%, a growth at 1 µM [19] of 99% and a growth at 1 µM [20] of 99%. For the same compound, the growth at 1 µM [21] was 57%, the growth at 1 µM [22] was 95% and the growth at 1 µM [23] was 80%. The growth at 100 µM [24] was -48%, the growth at 100 µM [25] was -25% and the growth at 100 µM [26] was -12%. For the same compound, the growth at 100 µM [27] was -17%, the growth at 100 µM [28] was 4% and the growth at 100 µM [29] was -81%. It also gave a growth at 100 µM [30] of 1%, a growth at 100 µM [31] of 17% and a growth at 100 µM [32] of 7%.
`COc1cc(Cl)cc(-c2nn(-c3cccc(NC(=O)Nc4cc(C(F)(F)F)cc(C(F)(F)F)c4)c3)cc2-c2ccncc2)c1` showed a growth at 10 µM [1] of -15.6%, an IC50 [2] of 330 nM and a GI50 ([2]; read-out: GI50) of 332 nM. For the same compound, the TGI ([2]; read-out: TGI) was 1270 nM, the GI50 ([2]; read-out: pGI50 (converted)) was 331 nM and the CC50 [2, 34] was 6610 nM. The TGI ([2]; read-out: pTGI (converted)) was 1260 nM, the IC50 [3] was 500 nM and the GI50 ([3]; read-out: GI50) was 501 nM. The CC50 [3, 33] was over 100000 nM, the TGI ([3]; read-out: TGI) was 21400 nM and the GI50 ([3]; read-out: pGI50 (converted)) was 501 nM. For the same compound, the CC50 [3, 34] was over 100000 nM, the TGI ([3]; read-out: pTGI (converted)) was 26900 nM and the IC50 [4] was 390 nM. It also gave a GI50 ([4]; read-out: GI50) of 356 nM, an LC50 ([4]; read-out: LC50) of 29.5 nM and a TGI ([4]; read-out: TGI) of 1980 nM. For the same compound, the GI50 ([4]; read-out: pGI50 (converted)) was 389 nM, the LC50 ([4]; read-out: pLC50 (converted)) was 29500 nM and the TGI ([4]; read-out: pTGI (converted)) was 2000 nM. The growth at 0.01 µM [5] was 93%, the growth at 0.01 µM [6] was 93% and the growth at 0.01 µM [7] was 96%. For the same compound, the growth at 0.01 µM [8] was 103%, the growth at 0.01 µM [9] was 58% and the growth at 0.1 µM [10] was 91%. It also gave a growth at 0.1 µM [11] of 102%, a growth at 0.1 µM [12] of 87% and a growth at 0.1 µM [13] of 95%. The growth at 0.1 µM [14] was 105%, the growth at 1 µM [15] was 13% and the growth at 1 µM [16] was 24%. It also gave a growth at 1 µM [17] of 23%, a growth at 1 µM [18] of 50% and a growth at 1 µM [19] of 5%. The growth at 1 µM [20] was 30%, the growth at 1 µM [21] was 12% and the growth at 1 µM [22] was 43%. The growth at 1 µM [23] was 15%, the growth at 100 µM [24] was -8% and the growth at 100 µM [25] was -8%. The growth at 100 µM [26] was -58%, the growth at 100 µM [27] was -68% and the growth at 100 µM [28] was -83%. The growth at 100 µM [29] was -63%, the growth at 100 µM [30] was -58% and the growth at 100 µM [31] was -62%. For the same compound, the growth at 100 µM [32] was -22%.

From ChEMBL document CHEMBL4308841, “Synthesis, in vitro antiproliferative activity, and kinase inhibitory effects of pyrazole-containing diarylureas and diarylamides” (Eur J Med Chem, 2018)
